Reference: patent US20260166121A1, “COMPOSITIONS AND METHODS FOR THE TREATMENT OF HEMORRHAGIC SHOCK” (Children's Hospital Medical Center, priority 2022, published 2026)
Ends that are not written are not given here.

Test system: AMPKα1 wild-type (WT) and knockout (KO) mice
Test: Survival analysis up to 7 days after hemorrhagic shock
Format: in vivo
Settings: 100 μg/kg intra-arterially at resuscitation, subcutaneously at 24 h and 48 h, compared to vehicle treatment
Protocol: Preparation of PEGylated humanin-G and survival analysis. In separate groups of mice survival studies were conducted. For these studies, we generated a longer-acting humanin-G by covalent conjugation of polyethylene glycol (PEG). Briefly, humanin-G was conjugated (1:1 molar ratio) to generate a non-cleavable PEGylated humanin-G. Humanin-G was dissolved in phosphate-buffered saline, pH 7.4, with 5 mM EDTA and mixed at room temperature with an equal volume of DMSO containing PEG-maleimide and left overnight (26). The product, PEGylated humanin-G (PEG10 kDa) was purified by size-exclusion chromatography with a 50 mM ammonium acetate buffer. Mice were subjected to hemorrhagic shock as described above. Mice received PEGylated humanin-G (100 μg/kg, intra-arterially) as a single dose at 90 minutes after blood removal at the time of resuscitation. Three hours after resuscitation, the femoral artery was occluded, and the skin incision was closed in layers. Mice were then allowed to awaken from anesthesia. Mice then received a second and a third dose of PEGylated humanin-G (100 μg/kg, subcutaneously) at 24 hours and 48 hours thereafter. Mice also received further fluid resuscitation (0.5 mL of Lactated Ringer's solution subcutaneously) at 6 hours and 24 hours following hemorrhagic shock. […] Mice were then monitored for survival for 7 days. […]

For “PEGylated humanin-G: non-cleavable PEGylated humanin-G, humanin-G conjugated 1:1 molar ratio with PEG-maleimide (PEG10 kDa) (MAPRGFSCLLLLTGEIDLPVKRRA; not fully specified (residue 8); also: PEG 10 kDa maleimide conjugate, attachment site not given here; UniProt Q8IVG9 1-24, looked up, variant S14G)”, the survival was “significantly ameliorated”.
